Like-named read-outs stand apart in the source and are kept apart here. Marks after values point to notes of the source that are not given here.
Columns and labels:
in vitro = settings: mouse liver microsomes
[1] = Liver microsomal stability; settings: mouse liver microsomes
D283-med cell line = experiment: Cytotoxicity against D283-med cells; assay type: cell-based, human
Plasma stability = assay type: in vitro ADME
Caco-2 cells = settings: ref Literature data; cited from earlier work
SF188 cell line = experiment: Cytotoxicity against SF188 cells; assay type: cell-based, human; settings: Homo sapiens, SF-188, read-out: SF188 IC50, glioblastoma cell line
[2] = PAMPA-BBB permeability assay; settings: PAMPA, PAMPA-BBB; for recovery: % Recovery; for Papp: Mean Permeability
[3] = molecular target: human constitutive proteasome (c20S) β1 (Homo sapiens, UniProt P28072+Q99436); experiment: Proteasome subunit inhibition, c20S β1; assay type: biochemical
[4] = molecular target: human immunoproteasome (i20S) β1 (Homo sapiens, UniProt P28065+P40306); experiment: Proteasome subunit inhibition, i20S β1; assay type: biochemical
[5] = molecular target: human constitutive proteasome (c20S) β5 (Homo sapiens, UniProt P20618+P28074); experiment: Proteasome subunit inhibition, c20S β5; assay type: biochemical
Whole blood stability = assay type: in vitro ADME; settings: whole blood incubation, 2 hours
[6] = molecular target: human immunoproteasome (i20S) β5 (Homo sapiens, UniProt P20618+P28062); experiment: Proteasome subunit inhibition, i20S β5; assay type: biochemical
P-gp = experiment: Caco-2 cell permeability and efflux; assay type: in vitro ADME, human; settings: human, Caco-2
[7] = Caco-2 cell permeability and efflux; assay type: in vitro ADME, human; settings: human; for Papp A→B / Papp B→A: Caco-2
[8] = molecular target: human constitutive proteasome (c20S) β2 (Homo sapiens, UniProt P49720+Q99436); experiment: Proteasome subunit inhibition, c20S β2; assay type: biochemical
[9] = molecular target: human immunoproteasome (i20S) β2 (Homo sapiens, UniProt P40306+P49720); experiment: Proteasome subunit inhibition, i20S β2; assay type: biochemical
mice = experiment: Toxicity observation in the PK study; assay type: in vivo; settings: 1 mg/kg i.v.
[10] = In vivo pharmacokinetics, plasma and brain; set-up: species or system Male C57BL/6 mice; settings: mice
[11] = Homo sapiens, D283 Med, read-out: D283-med IC50, medulloblastoma cell line
[12] = Caco-2, % Recovery (A-B), Caco-2, A-B direction
[13] = Caco-2, % Recovery (B-A), Caco-2, B-A direction

Compound	half-life (in vitro) [min]	Microsomal Stability Clearance Category [1]	IC50 (D283-med cell line; [11]) [nM]	IC50 (SF188 cell line) [nM]	recovery [2] [%]	Papp [2] [×10⁻⁶ cm/s]	IC50 [3] [nM]	IC50 [4] [nM]	IC50 [5] [nM]	IC50 [6] [nM]	Efflux Ratio (P-gp)	Papp A→B [7] [×10⁻⁶ cm/s]	Papp B→A [7] [×10⁻⁶ cm/s]	recovery [7, 12] [%]	recovery [7, 13] [%]	IC50 [8] [nM]	IC50 [9] [nM]	other results
CC(C)C[C@H](NC(=O)[C@H](CCc1ccccc1)NC(=O)CN1CCOCC1)C(=O)N[C@@H](Cc1ccccc1)C(=O)N[C@@H](CC(C)C)C(=O)[C@@]1(C)CO1 [Carfilzomib, reference compound]	< 5	High	205 ± 24	706 ± 82	41	1.43												remaining at 2 h (Plasma stability; mouse, plasma, Plasma Stability % remaining, after 2 hr): 99%; Efflux Ratio (Caco-2 cells): 28.6*
CC(C)C[C@H](NC(=O)[C@@H]1CS(=O)(=O)CCCCCCCCCC(=O)N[C@@H](C(C)C)C(=O)N1)C(=O)[C@@]1(C)CO1 [Compound 40, (3R,6S)-6-Isopropyl-N-((S)-4-methyl-1-((R)-2-methyloxiran-2-yl)-1-oxopentan-2-yl)-5,8-dioxo-1-thia-4,7-diazacycloheptadecane-3-carboxamide 1,1-dioxide]	< 5	High	2.3	6.7 ± 0.3	77	3.34	767 ± 177	144 ± 9.2	7.5 ± 0.6	16 ± 2	4.8	10.1	48.8	91	89	39.4 ± 6.3	23 ± 1.6	Whole blood retention (Whole blood stability): ~ 15%; microsomal CLint (in vitro): 323 µL/min/mg; IC50 (D283-med cell line; read-out: D283-med IC50, medulloblastoma cell line): 2.26 ± 0.26 nM; Plasma Stability % remaining (Plasma stability; mouse plasma, after 2 hr): 94 after 2 hr %; remaining at 5 h (Plasma stability; mouse, plasma, Plasma Stability % remaining, after 5 hr): > 75%; Signs of toxicity (mice): lack of toxicity; Levels in brain tissues ([10]; 1 mg/kg i.v.): failed to achieve detectable levels; Plasma concentrations after dosing ([10]; 1 mg/kg i.v.): negligible plasma concentrations beyond 5 minutes post-dosing; Plasma concentrations after dosing ([10]; 10 mg/kg): did not exhibit significant plasma concentrations beyond 5 minutes post-administration
CC(C)C[C@H](NC(=O)[C@@H]1CSCCOCCOCCC(=O)N[C@@H](C(C)C)C(=O)N1)C(=O)[C@@]1(C)CO1 [Compound 41, (9R,12S)-12-Isopropyl-N-((S)-4-methyl-1-((R)-2-methyloxiran-2-yl)-1-oxopentan-2-yl)-11,14-dioxo-1,4-dioxa-7-thia-10,13-diazacyclohexadecane-9-carboxamide]			90 ± 8	113 ± 9	98	0.22	484 ± 33	49 ± 2.2	390 ± 50.7	4900 ± 2160	27.6	0.75	20.8	102	101	110 ± 20.3	277 ± 49.1	

— paper PMC13626384 (Journal of medicinal chemistry, 2025)
